The inhibition is the relative decrease from the control value, in per cent.

These results are taken from PubChem BioAssay AID2005 (Sanford-Burnham Center for Chemical Genomics, 2009).

Activity calls are given as the source filed them.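 How the source made its calls: active means plate Z score at or below -3, or inhibition of at least 30% at 20 µM; inactive means the rest.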

The nature of this assay: compounds lowering EGFP fluorescence in F442A cells, dose response, counter-screen for p/CIP destabilizer project (AID 2005).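 Further: cells express EGFP alone from a CMV promoter as a counter screen for p/CIP-EGFP.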 As to conditions: F442A EGFP cells, EGFP fluorescence, 16 h, stronger effect = higher value. (In general: A counterscreen serves to expose hits that act by an unwanted route or on another target.)

For the compound `CC(NC(=O)c1c(F)cccc1Cl)c1ccc(-n2ccnc2)cc1` (stereo not drawn), the inhibition is, setting by setting: (EGFP decrease, at 10 µM) 35.7%; (at 20 µM) 24.4% (inactive).

With `Cc1cc(C)n(/N=C/c2ccccc2O)c(=O)c1`, the inhibition is 20.8% (EGFP decrease, at 10 µM) and 9.9% (inactive) (at 20 µM).

`CN1CCN(C(=O)c2cccc(S(=O)(=O)N3CCCCC3)c2)CC1`: the inhibition is, setting by setting: (EGFP decrease, at 10 µM) 10.5%; (at 20 µM) 20.5% (inactive).

On to `CC(Oc1ccc(Cl)cc1)C(=O)NCC1CCCO1` (stereo not drawn), for which the inhibition reads like this: (EGFP decrease, at 10 µM) 20.8%; (at 20 µM) -7.4% (inactive).

On to `CCC1=C2CC[C@H]3C(=O)N(C)C(=O)[C@H]3[C@H]2[C@@]2(Cc3ccccc3)C(=NCCOC)OC(=O)N2C1=O`, for which the inhibition runs as follows: (EGFP decrease, at 10 µM) -6.2%; (at 20 µM) 13.4% (inactive).

In the case of `CCC1=C(OC(=O)N(CC)CC)N2C(=O)OC(=NCC3CC3)[C@]2(Cc2ccccc2)[C@H]2C1=CC[C@H]1C(=O)N(CC(=O)OC)C(=O)[C@H]12`, the inhibition runs as follows: (EGFP decrease, at 10 µM) 0.3%; (at 20 µM) 13.8% (inactive).

As to `O=C(OCC(=O)N1CCC(Cc2ccccc2)CC1)c1ccccc1`, the inhibition is -1.5% (EGFP decrease, at 10 µM) and -16% (inactive) (at 20 µM).

For the compound `Cc1cc(C)n(CC(O)COc2ccc(C(C)(C)C)cc2)n1` (stereo not drawn), the inhibition by setting is: (EGFP decrease, at 10 µM) -4.8%; (at 20 µM) 7.7% (inactive).

In the case of `O=C(Nc1nc(-c2ccccc2)cs1)C1CCCCN1S(=O)(=O)c1ccccc1` (stereo not drawn), the inhibition was 15% (EGFP decrease, at 10 µM) and 8.6% (inactive) (at 20 µM).

For the compound `COC(=O)[C@@H](Cc1c[nH]c2ccccc12)NC(=O)C1CCCN(S(=O)(=O)c2ccc(C)cc2)C1` (stereo partly drawn), the inhibition was -7.3% (EGFP decrease, at 10 µM) and 19.7% (inactive) (at 20 µM).

With `O=c1c(Br)c(Br)cnn1-c1ccccc1`, the inhibition was 14.6% (EGFP decrease, at 10 µM) and 29.7% (inactive) (at 20 µM).

As to `COc1ccc(CCNC(=O)C2CCN(S(=O)(=O)c3cccs3)CC2)cc1OC`, the inhibition was 34.9% (EGFP decrease, at 10 µM) and 25.1% (inactive) (at 20 µM).

Turning to `COc1ccc(/C=C/C(=O)Nc2cccc(N3CCOCC3)c2)cc1OC`, the inhibition was -4.5% (EGFP decrease, at 10 µM) and 6.7% (inactive) (at 20 µM).

On to `Cc1cccc(C)c1OCc1cc(C(=O)N2CCCC2c2nonc2C)no1` (stereo not drawn), for which the inhibition runs as follows: (EGFP decrease, at 10 µM) 17.2%; (at 20 µM) 11.5% (inactive).

`CC(C)(C)NC(=O)c1ccc2c(c1)N(CC(=O)N1CCN(c3ccc(F)cc3)CC1)C(=O)C(C)(C)O2`: the inhibition is, setting by setting: (EGFP decrease, at 10 µM) 8.7%; (at 20 µM) 12.7% (inactive).

Consider `CCOc1ccc(NC(=O)CSc2nc3ccccc3c(=O)n2CCNC(C)=O)cc1`, for which the inhibition was 13.6% (EGFP decrease, at 10 µM) and 15% (inactive) (at 20 µM).

In the case of `O=C(Nc1cccc(-c2csc(Nc3ccc(Cl)cc3)n2)c1)c1cc([N+](=O)[O-])cc(C(F)(F)F)c1`, the inhibition (EGFP decrease, at 10 µM) amounted to 32.2% and the inhibition (at 20 µM) is 21.2% (inactive).

With `Cc1ccc2c(COC(=O)CNC(=O)c3ccccc3)cc(=O)oc2c1`, the inhibition (EGFP decrease, at 10 µM) is 5.9% and the inhibition (at 20 µM) is -2.9% (inactive).

`N#C/C(=C\c1cccnc1)C(=O)Nc1ccccc1[N+](=O)[O-]`: the inhibition runs as follows: (EGFP decrease, at 10 µM) 27.7%; (at 20 µM) 2% (inactive).

Regarding `CC(C)(C)c1cc(Cc2ccccc2)[nH]n1`, the inhibition (EGFP decrease, at 10 µM) is -3.7% and the inhibition (at 20 µM) was 35.1%.

For `CCCCN(Cc1ccccc1)S(=O)(=O)c1ccc2[nH]c(=O)oc2c1`, the inhibition runs as follows: (EGFP decrease, at 10 µM) 7.9%; (at 20 µM) 11.8% (inactive).

In the case of `COc1ccc(S(=O)(=O)N2CCOC2CNC(=O)C(=O)NCc2ccncc2)cc1` (stereo not drawn), the inhibition reads like this: (EGFP decrease, at 10 µM) -30.4%; (at 20 µM) 8.6% (inactive).

As for `COc1cc(NC(=O)c2ccccc2[N+](=O)[O-])c(C(=O)O)cc1OC`, the inhibition reads like this: (EGFP decrease, at 10 µM) 9.2%; (at 20 µM) -1.6% (inactive).

Turning to `Cc1ccsc1/C=N\NC(=O)CCc1c(C)n[nH]c1C`, the inhibition is 4% (EGFP decrease, at 10 µM) and -13.2% (inactive) (at 20 µM).

Regarding `Fc1ccc(NC(=S)NCc2cccnc2)cc1`, the inhibition is, setting by setting: (EGFP decrease, at 10 µM) 28.3%; (at 20 µM) 8.7% (inactive).

Take `Cc1cc2c(c(Sc3ccccc3)n1)C(=O)OC2`: the inhibition (EGFP decrease, at 10 µM) was -4% and the inhibition (at 20 µM) was -3.5% (inactive).

For the compound `CCOC(=O)N1CCN(S(=O)(=O)c2cc(OCC)ccc2OCC)CC1`, the inhibition reads like this: (EGFP decrease, at 10 µM) -19.2%; (at 20 µM) 5.4% (inactive).

For the compound `COc1ccccc1N1CCN(C(=O)C(CC(C)C)NC(=O)C2CCCCC2)CC1` (stereo not drawn), the inhibition (EGFP decrease, at 10 µM) was -31.4% and the inhibition (at 20 µM) is 6% (inactive).

Consider `CC(=O)Nc1cc2c(cc1C(=O)c1ccc(C)cc1)OCCO2`, for which the inhibition runs as follows: (EGFP decrease, at 10 µM) 16%; (at 20 µM) -7.7% (inactive).

Turning to `CS(=O)(=O)Nc1ccccc1C(=O)Nc1cc(Cl)cc(Cl)c1`, the inhibition by setting is: (EGFP decrease, at 10 µM) 19.6%; (at 20 µM) -18.3% (inactive).

For `CCOC(=O)C1CCN(C(=O)c2cc(OCC)c(OCC)c(OCC)c2)CC1`, the inhibition is, setting by setting: (EGFP decrease, at 10 µM) 10.4%; (at 20 µM) 24.3% (inactive).

Regarding `O=C(Cc1ccccc1)NC(=S)Nc1cccc(C(F)(F)F)c1`, the inhibition is, setting by setting: (EGFP decrease, at 10 µM) 14.2%; (at 20 µM) 16.8% (inactive).

With `CN(c1ccc(C(=O)Nc2ccccn2)cc1)S(=O)(=O)c1ccccc1`, the inhibition (EGFP decrease, at 10 µM) amounted to 11.8% and the inhibition (at 20 µM) was 9% (inactive).

With `C/C(=N\NC(=O)c1cccs1)c1c(O)cc(C)oc1=O`, the inhibition is 28.7% (EGFP decrease, at 10 µM) and 0.8% (inactive) (at 20 µM).

Turning to `NNC(=O)c1ccc(-c2cccc([N+](=O)[O-])c2)o1`, the inhibition was 4.6% (EGFP decrease, at 10 µM) and 9.1% (inactive) (at 20 µM).

In the case of `Cc1noc(C)c1COC(=O)CNC(=O)c1cccc(F)c1`, the inhibition is 4% (EGFP decrease, at 10 µM) and -7.3% (inactive) (at 20 µM).

Take `COc1ccc(/C=C/C2=NN(Cc3ccccc3)C(=O)CC2)cc1`: the inhibition was 28.1% (EGFP decrease, at 10 µM) and 18.7% (inactive) (at 20 µM).

Turning to `Cc1ccc(-c2nc(-c3cccnc3)no2)c(C)c1`, the inhibition by setting is: (EGFP decrease, at 10 µM) 18.1%; (at 20 µM) 31.1%.

`CC1=C(C(=O)OCc2ccccc2)C(c2ccc(C(F)(F)F)cc2)NC(=O)N1CCCCCC(=O)O` (stereo not drawn): the inhibition (EGFP decrease, at 10 µM) is -4.3% and the inhibition (at 20 µM) is -6% (inactive).

With `O=C(NCc1ccncc1)c1cc(C(=O)C2CCCCC2)c[nH]1`, the inhibition is, setting by setting: (EGFP decrease, at 10 µM) -25%; (at 20 µM) 31.5%.

`Cc1ccc(/C=C/C(=O)c2ccc(N3CCOCC3)cc2)s1`: the inhibition (EGFP decrease, at 10 µM) stood at 8.3% and the inhibition (at 20 µM) is -1.4% (inactive).

Consider `O=C(Nc1cccnc1)c1ccc(Cl)c(S(=O)(=O)N2CCCCCC2)c1`, for which the inhibition is 28.5% (EGFP decrease, at 10 µM) and -6.9% (inactive) (at 20 µM).

On to `O=C(NCCSc1ccccn1)c1ccc(Cl)cc1Cl`, for which the inhibition by setting is: (EGFP decrease, at 10 µM) 19.7%; (at 20 µM) 3.4% (inactive).

As for `CCc1ccc(CN2CCC(n3nccc3NC(=O)c3ccccc3C)CC2)cc1`, the inhibition reads like this: (EGFP decrease, at 10 µM) 22.7%; (at 20 µM) -0.4% (inactive).

In the case of `O=C(CNC(=O)c1ccco1)NCC(=O)OCc1ccc(Cl)cc1Cl`, the inhibition was -15.3% (EGFP decrease, at 10 µM) and 6% (inactive) (at 20 µM).

On to `Cc1cccc(C)c1NC(=O)c1ccccc1C(=O)O`, for which the inhibition reads like this: (EGFP decrease, at 10 µM) 18.1%; (at 20 µM) 20.4% (inactive).

`CCOc1ccc(N(CC(=O)N2CCOCC2)S(=O)(=O)c2ccc(Cl)cc2)cc1`: the inhibition runs as follows: (EGFP decrease, at 10 µM) 12.8%; (at 20 µM) 14.1% (inactive).

For `COc1ccc([N+](=O)[O-])cc1NC(=O)c1cccs1`, the inhibition (EGFP decrease, at 10 µM) turned out to be 18.4% and the inhibition (at 20 µM) was 8.7% (inactive).

As for `CC(CN1CCOCC1)OC(=O)C(C)(c1ccccc1)c1ccccc1` (stereo not drawn), the inhibition is -14.9% (EGFP decrease, at 10 µM) and -4.6% (inactive) (at 20 µM).

In the case of `CCCCS(=O)(=O)Nc1ccc2c(c1)ncn2C1CCCCC1`, the inhibition runs as follows: (EGFP decrease, at 10 µM) 27.7%; (at 20 µM) 13.8% (inactive).

For the compound `COc1ccccc1CN1CC(C(=O)NCc2cc(F)cc(C(F)(F)F)c2)CCC1=O` (stereo not drawn), the inhibition was 4.7% (EGFP decrease, at 10 µM) and 12.5% (inactive) (at 20 µM).

With `COC(=O)c1cccc(C23CC4(C2)[C@H](CN(C)[C@@H]4c2ccccc2)C3c2ccc(C(F)(F)F)cc2)c1` (stereo partly drawn), the inhibition by setting is: (EGFP decrease, at 10 µM) 8%; (at 20 µM) 8.1% (inactive).

For `O=C(O)[C@@H]1CCCN1c1ncnc2sc3c(c12)CCC3`, the inhibition runs as follows: (EGFP decrease, at 10 µM) 0.9%; (at 20 µM) 31.1%.

As for `CCN1C(=O)/C(=C2\C=Cc3cc(C)ccc3N2CC)OC1=S`, the inhibition runs as follows: (EGFP decrease, at 10 µM) -35.7%; (at 20 µM) -30.8% (inactive).

On to `COc1ccccc1NC(=S)NNC(=O)c1ccc(Cl)cc1Cl`, for which the inhibition by setting is: (EGFP decrease, at 10 µM) -23.9%; (at 20 µM) 2% (inactive).

As for `Cc1cc(/N=C/N(C)C)on1`, the inhibition was 20.8% (EGFP decrease, at 10 µM) and -23.7% (inactive) (at 20 µM).

As to `COc1ccc(S(=O)(=O)N2c3ccccc3OCC2c2ccccc2)cc1` (stereo not drawn), the inhibition runs as follows: (EGFP decrease, at 10 µM) -12.8%; (at 20 µM) 1.8% (inactive).

As to `CC(Nc1cc(N2CCN(S(=O)(=O)N(C)C)CC2)ccc1[N+](=O)[O-])c1ccccc1` (stereo not drawn), the inhibition by setting is: (EGFP decrease, at 10 µM) 7.3%; (at 20 µM) 23.9% (inactive).

As to `O=C(Nc1ccc(F)cc1)Nc1nnc(-c2ccco2)s1`, the inhibition was 12% (EGFP decrease, at 10 µM) and -2.8% (inactive) (at 20 µM).

`COc1ccccc1-c1cn[nH]c(=S)n1`: the inhibition is, setting by setting: (EGFP decrease, at 10 µM) 24.4%; (at 20 µM) 8.7% (inactive).

Take `Cc1ccc(C2C(C#N)=C(N)Oc3cc4c(cc32)OCO4)cc1` (stereo not drawn): the inhibition reads like this: (EGFP decrease, at 10 µM) 15.9%; (at 20 µM) 18.9% (inactive).

Take `CC(=O)Nc1cn(C(C)=O)c(C)n1`: the inhibition was 5.9% (EGFP decrease, at 10 µM) and 33.7% (at 20 µM).

`COc1cccc(CNC(=O)C2CCN(c3cnccn3)CC2)c1`: the inhibition runs as follows: (EGFP decrease, at 10 µM) -0.8%; (at 20 µM) 8.6% (inactive).

Regarding `Cc1ccc(OCC(=O)N2CCN(C(=O)c3ccco3)CC2)cc1`, the inhibition is 23.1% (EGFP decrease, at 10 µM) and 8.2% (inactive) (at 20 µM).
